# Data reported in paper PMC8652888, “Angiogenesis, Anti-Tumor, and Anti-Metastatic Activity of Novel α-Substituted Hetero-Aromatic Chalcone Hybrids as Inhibitors of Microtubule Polymerization” (Frontiers in Chemistry, 2021).
# “And” between values parts separate entries of the source, which are not always exact repeats. Equal entries are not always repeated. Where two headings read alike, the source gives them in different places.
# Key:
# U937 = assay: Antiproliferative activity, CCK-8 assay; format: cell-based; conditions: Homo sapiens, U-937
# Description: (§1) The synthesized compounds were first evaluated for their cytotoxic effect on MCF-7 (human breast adenocarcinoma), U937 (histiocytic lymphoma cancer), HepG2 (human liver cancer) cells, and MGC-803 (human gastric cancer) using the SRB and CCK-8 assay. As reference compounds CA-4 and colchicine were included.
# (§2) The primary tumor cells were purchased from a professional biomedical company. First, the primary tumor cells were incubated in a cell culture incubator at 37°C and 5% CO2. After the cell fusion reached 85%–95%, subculture was performed, and the tumor cells obtained at this time were used for subsequent related experiments. The CCK-8 method was used to inhibit the proliferation of U937 tumor cells, and the SRB method was used to inhibit the proliferation of MCF7 and HepG2 tumor cells.
# (§3) The cells in the logarithmic growth phase were seeded in a 96-well plate at 8,000/well, and the drug-containing medium and cell suspension were added to the well. Three wells were added with the blank medium as the blank group. The 96-well plate was incubated for 72 h in a 37°C, 5% CO2 incubator. The 10 μl of CCK-8 dye solution was added to each well, and the incubation continued for 3–4 h.
# MCF-7 = assay: Antiproliferative activity, SRB assay; format: cell-based, human;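 further: proliferation of MCF7 cells quantified by sulforhodamine B staining, with optical density read at 560 nm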
# HepG2 = assay: Antiproliferative activity, SRB assay; format: cell-based, human; conditions: Homo sapiens, HepG2
# Description: as §1, §2
# (§4) Cells were distributed into 96-well plates with a density of 3 × 10^3–4 × 10^3 cells per well and incubated for 24 h in a 5% CO2 incubator at 37°C, followed by treatment with study compounds at different concentrations at 37°C for 72 h. One hundred microliters of 10% (w/v) trichloroacetic acid was added to each well, fixed at 4°C for 30 min, and dried at 65°C. Then 100 μl of 0.4% SRB was added to each well and stained on a shaker for 20 min at room temperature. The excess dye solution was washed with newly prepared 1% glacial acetic acid and dried at 65°C. One hundred fifty microliters of 10 mM unbuffered Trisbase was added to each well of the plate and shaken for 5 min to dissolve the dye. The microplate reader measured the optical density (OD) at a wavelength of 560 nm.
# [1] = system: taxol-resistant MCF7 cells (MCF7/Tax); assay: Growth inhibition of taxol-resistant cells; format: cell-based, human
# normal liver LO2 cells = assay: Growth inhibition of normal cells; format: cell-based, human
# MGC-803 = assay: Antiproliferative activity (SRB and CCK-8 assay); format: cell-based; conditions: Homo sapiens, triplicate, mean ± SD, read-out: IC50 ± SD, MGC-803
# Excerpt: as §1
# [2] = system: MCF-7, U937, HepG2 and MGC-803 cells; assay: Antiproliferative activity, cancer cell panel (text summaries); format: cell-based, human; conditions: Homo sapiens; U937, MCF-7, HepG2, MGC-803; read-out: IC50 against four cancer cell lines
# Description: as §1, §2, §4, §3
# [3] = 72 h, triplicate, mean ± SD, read-out: IC50 ± SD, U937
# [4] = Homo sapiens, MCF7, 72 h, 72 h, triplicate, mean ± SD, read-out: IC50 ± SD, MCF-7
# [5] = Homo sapiens, MCF7, Table 3, triplicate, read-out: IC50 ± SD, MCF7
# [6] = Homo sapiens, MCF7, three single determinations, read-out: MCF-7 (raw data of table 3, IC50)
# [7] = 72 h, triplicate, mean ± SD, read-out: IC50 ± SD, HepG2
# [8] = Homo sapiens, MCF7, three single determinations, read-out: MCF-7/Taxol (raw data of table 3, IC50)
# [9] = Homo sapiens, MCF7, triplicate, read-out: IC50 ± SD, MCF7/Tax
# [10] = Homo sapiens, L02, three single determinations, read-out: L02 (raw data of table 3, IC50)
# [11] = Homo sapiens, L02, triplicate, read-out: IC50 ± SD, LO2
IC50 (U937; [3]) [µM],IC50 (MCF-7; [4]) [µM],IC50 (HepG2; [7]) [µM],IC50 (MGC-803) [µM],IC50 [2] [µM],melting point [°C],Structure (SMILES),IC50 (MCF-7; [5]) [µM],IC50 (MCF-7; [6]) [µM],"IC50 [1, 8] [µM]","IC50 [1, 9] [µM]",IC50 (normal liver LO2 cells; [10]) [µM],IC50 (normal liver LO2 cells; [11]) [µM],further results
> 20,> 20,> 20,> 20,> 20,221.7 to 223.6,"COC(=O)c1cccc2[nH]cc(/C=C/C(=O)c3cc(OC)c(OC)c(OC)c3)c12 [Compound 6d, methyl(E)-3[3-oxo-3-(3,4,5-trimethoxyphenyl)prop-1-en-1-yl]-1H-indole-4-carboxylate]",–,–,–,–,–,–,–
> 20,> 20,> 20,> 20,> 20,218.7 to 220.3,"COC(=O)c1ccc2[nH]cc(/C=C/C(=O)c3cc(OC)c(OC)c(OC)c3)c2c1 [Compound 6e, methyl(E)-3[3-oxo-3-(3,4,5-trimethoxyphenyl)prop-1-en-1-yl]-1H-indole-5-carboxylate]",–,–,–,–,–,–,–
–,–,–,–,–,–,"CC(=O)O[C@H]1C(=O)[C@@]2(C)[C@H]([C@H](OC(=O)c3ccccc3)[C@]3(O)C[C@H](OC(=O)[C@H](O)[C@@H](NC(=O)c4ccccc4)c4ccccc4)C(C)=C1C3(C)C)[C@]1(OC(C)=O)CO[C@@H]1C[C@@H]2O [Taxol, paclitaxel]",0.0246 ± 0.0032,0.0206,0.334,0.336 ± 0.018,0.0321,0.0324 ± 0.0019,"IC50 (MCF-7; three single determinations, listed as TaxolL, read-out: MCF-7 (raw data of table 3, IC50)): 0.0283 µM and 0.0249 µM; Resistant fold ([1]; (IC50 MCF7/Tax)/(IC50 MCF7)): 13.7; IC50 ([1]; three single determinations, listed as TaxolL, read-out: MCF-7/Taxol (raw data of table 3, IC50)): 0.315 µM and 0.359 µM; Selectivity ratio (normal liver LO2 cells; (IC50 human normal cells LO2)/(IC50 MCF7)): 1.3; IC50 (normal liver LO2 cells; three single determinations, listed as TaxolL, read-out: L02 (raw data of table 3, IC50)): 0.0345 µM and 0.0306 µM"

Structure (SMILES),IC50 (U937; [3]) [µM],IC50 (MCF-7; [4]) [µM],IC50 (HepG2; [7]) [µM],IC50 (MGC-803) [µM],IC50 [2] [µM],melting point [°C],IC50 (MCF-7; [5]) [µM],IC50 (MCF-7; [6]) [µM],"IC50 [1, 8] [µM]","IC50 [1, 9] [µM]",IC50 (normal liver LO2 cells; [10]) [µM],IC50 (normal liver LO2 cells; [11]) [µM],further results
"COc1ccc(/C=C\c2cc(OC)c(OC)c(OC)c2)cc1O [CA-4, reference compound]",0.0003 ± 0.0001,0.0114 ± 0.0002,0.0071 ± 0.0009,–,–,–,0.0114 ± 0.0002,0.0118,0.0202,0.0212 ± 0.0006,0.0141,0.0152 ± 0.0005,"IC50 (U937; supplement raw data, read-out: IC50/U937): 0.000326 ± 0.0001 µM; IC50 (MCF-7; Homo sapiens, MCF7, supplement raw data, read-out: IC50/MCF): 0.0114 ± 0.0002 µM; IC50 (HepG2; supplement raw data, read-out: IC50/Hepg2): 0.00709 ± 0.0009 µM; IC50 ([1]; three single determinations, read-out: MCF-7/Taxol (raw data of table 3, IC50)): 0.0221 µM and 0.0213 µM; IC50 (normal liver LO2 cells; three single determinations, read-out: L02 (raw data of table 3, IC50)): 0.0162 µM and 0.0153 µM"
